Laboratory results from paper PMC9814929, “Control over the fibrillization yield by varying the oligomeric nucleation propensities of self-assembling peptides” (Communications Chemistry, 2020).
Values joined by “and” are separate entries in the source; they are usually repeats but may differ in a detail not shown here. Equal entries are not always repeated. Peptide text beside a SMILES is read from it.

What was measured:
[1] = not given; remark: listed apart in the source
[2] = not given; remark: listed apart in the source
[3] = larger oligomers or early nucleated structures; 1 µM Cy5-SLP in 4 mM unlabeled SLP, PBS pH 7.4; early assembly phase, measured after 5 min of preparatory work
Method: To validate this hypothesis, we performed fluorescence correlation spectroscopy (FCS) measurements to study the diffusion properties of SLPs in the early phase of self-assembly. […] To explore these size differences in more detail, we fitted the FCS data with a higher-order fitting model. Maximum entropy method (MEM) was chosen to account for the polydispersity of the oligomers. Each condensed fraction was treated as one quasi-continuous distribution, so as to provide the widest data-complying size distribution (least chance of overinterpretation)[34].
The measurement concentration was 4 mM of SLPs in PBS (pH 7.4) of which 1 out of 4000 peptides was labeled with Cy5. The FCS autocorrelation curves were fitted with the maximum entropy method (MEM) for higher-resolution analysis on size distribution, indicated by the solid lines. c The size distribution of SLPs obtained from MEM analysis of the FCS measurements. The dashed line at D = 150 µm^2/s indicates the cut-off size between monomeric (D > 150) and oligomer (D < 150) populations.
Fluorescence time traces were obtained by focusing a 640-nm laser line through a water immersion objective lens (×60 Plan Apo VC, N.A. 1.2, Nikon, Japan) at ~50 µm above the bottom of the glass-bottom 96-well plate (Grainer Bio-one, Frickenhausen, Germany). […] After 5 min of preparatory work, 50 µl of sample was measured with confocal microscope (Nikon C1). […]

[4] = not given; remark: listed apart in the source
[5] = Solid-state NMR population profiling (dipolar CP and scalar INEPT spectra) of fibril and non-fibril assemblies; type: physicochemical; details: 4 mM, pH 7.4 in PBS, 3 days, 500 MHz, 10 kHz MAS, 280 K; for normalization scaling factor of the dipolar ssNMR spectrum relative to SLP1 (higher factor = lower fibrillization yield): dipolar CP spectra report on rigid 1D nanofibers
Method: As a next step, we hypothesized that higher-resolution methods might disclose further differences in the properties of the SLP assemblies. To examine our hypothesis, we profiled the SLP1–4 assemblies using ssNMR spectroscopy. Using the same conditions (4 mM, pH 7.4 in PBS for 3 days), we acquired the so-called dipolar cross-polarization (CP) ssNMR spectra and so-called scalar INEPT ssNMR spectra on isotopically (^13C, ^15N) labeled SLP assemblies (see “Methods”), which enables to quantify rigid and mobile populations of peptide assemblies in the systems[36] (Fig. 3b). While dipolar signals report on immobilized peptides in 1D assemblies, scalar spectra report on peptides with fast pico-to-nanosecond dynamics, which can either be monomeric peptides or micellar oligomers[16],[32]. We specifically labeled residues in the hydrophobic tail (Val1–2 and Leu6–7) that are responsible for the self-assembly. […] The intensity of the dipolar spectra correlates with the amount of rigid cross-β structure present in the system. We observe that the intensities of dipolar signal of SLP1 is larger than SLP2 (normalization scaling factor of 10, Fig. 3b) and SLP3 (normalization scaling factor of 25, Fig. 3b), which indicate the relative fibrillization yield of SLP1 > SLP2 > SLP3. […]
1D CP[48] and scalar[49] ssNMR experiments to probe rigid and mobile populations, respectively, were acquired at 11.7 T magnetic field (500 MHz (^1H frequency) with 10 kHz magic angle spinning (MAS) and 280 K sample temperature. 2D ^13C–^13C and 2D CαN for peptide assignments were also performed at similar conditions. 2D Ca(N)H experiments for ^15NT1rho relaxation studies were performed at 950 MHz magnetic field strength with 60 kHz. ^13C was detected in the indirect dimension because of spectral overlap in the ^15N dimension. The 2D ^13C–^13C PARIS[37] experiment with the CPMAS CryoProbe[39] to measure intermolecular peptide contacts was performed at 600 MHz and 12 kHz MAS using 700 ms magnetization transfer and a ^1H recoupling amplitude of 6 kHz.

[6] = Negative-staining TEM and AFM of the mesoscale structure of SLP assemblies; type: physicochemical; details: 4 mM, pH 7.4 in PBS
Method: Next, we investigated the downstream effect of the differences in size of oligomeric particles and β-sheet propensities on the supramolecular self-assembly. One of the pivotal events in defining supramolecular self-assembly is whether nucleation has taken place or not. This can be identified by the mesoscale structures of the assemblies after certain time of incubation, e.g., the formation of one-dimensional (1D) nanostructures is indicative that nucleation has taken place. We used negative-staining transmission electron microscopy (TEM) and atomic force microscopy (AFM) to compare SLPs that were assembled under the same preparation protocol (4 mM, pH 7.4 in phosphate-buffered saline (PBS) for 3 days). We could indeed detect markedly different mesoscale structures in these SLP systems (Figs. 3a and S1). […] Based on these mesoscale evidences, we can deduce that nucleation occurred in SLP1–3, however, not in SLP4.
Peptide assemblies were prepared by dissolving peptide powders in nine volumes of 10 mM sodium hydroxide in 1.5 ml Eppendorf tube. One volume of PBS (10×) was added to make sample of pH 7.4 ± 0.2 and a final concentration of 4 mM. Solution was vortexed for 5 s and incubated statically for 3 days at room temperature before proceeding for measurements.
Samples prepared at 4 mM were diluted tenfold with 1× PBS. Formvar/carbon-coated 400 mesh copper grid (Polysciences Inc.) was placed on top of a droplet of 20 μl of diluted samples. After 2-min incubation, the grid was washed three times with […] filtered mili-Q water and blotted dry with filter paper. Negative staining was performed for 1 min with 2% w/v uranyl acetate in water. Staining solution was blotted off with filter paper. […]
AFM micrographs were recorded using a Bruker MultiMode 8 (ScanAsyst Air silicon nitride probes, spring constant 0.4 N/m, nominal tip radius 2 nm) and post-processed by a plane subtraction and line alignment. Three different spots (one in main text, two in Fig. S3) were measured on the sample to confirm uniformity and get a comprehensive view of the sample’s features.

| Compound | nanofiber length [nm] | nanofiber diameter [1] [nm] | XRD cross-β reflection [2] [Å] | diffusion coefficient of the SLP population (MEM analysis of FCS) [3] | oligomer diffusion coefficient, fold smaller than SLP3–4 [4] | normalization scaling factor of the dipolar ssNMR spectrum relative to SLP1 (higher factor = lower fibrillization yield) [5] | dipolar ssNMR signals (immobile assemblies) [5] | mesoscale structure of the assemblies (TEM, AFM) ([6]; 3 days static at room temperature) | diameter of the assembled nanostructures ([6]; TEM/AFM, 3 days) | nucleation event deduced from mesoscale structure ([6]; TEM/AFM, 3 days) |
| --- | --- | --- | --- | --- | --- | --- | --- | --- | --- | --- |
| CC[C@H](C)[C@H](NC(=O)[C@@H](NC(=O)[C@@H](NC(=O)[C@@H](NC(=O)[C@@H](NC(C)=O)C(C)C)C(C)C)C(C)C)[C@@H](C)O)C(=O)N[C@@H](CC(C)C)C(=O)N[C@@H](CC(C)C)C(=O)N[C@@H](CCC(=O)O)C(=O)N[C@@H](CCC(=O)O)C(=O)O [SLP1] (Ac-VVVTILLEE-OH) | > 1000 | 10 | 4.7 | 0.1–1 µm^2/s | 10 times and 10 fold |  |  |  |  |  |
| CC(=O)N[C@H](C(=O)N[C@H](C(=O)N[C@H](C(=O)N[C@H](C(=O)N[C@@H](CC(C)C)C(=O)N[C@@H](CC(C)C)C(=O)N[C@@H](CC(C)C)C(=O)N[C@@H](CCC(=O)O)C(=O)N[C@@H](CCC(=O)O)C(=O)O)[C@@H](C)O)C(C)C)C(C)C)C(C)C [SLP2] (Ac-VVVTLLLEE-OH) | > 1000 |  | 4.7 |  |  | 10 |  |  |  |  |
| CC[C@H](C)[C@H](NC(=O)[C@@H](NC(=O)[C@@H](NC(=O)[C@@H](NC(=O)[C@@H](NC(C)=O)C(C)C)C(C)C)C(C)C)[C@@H](C)O)C(=O)N[C@@H](CC(C)C)C(=O)N[C@@H](CC(C)C)C(=O)N[C@@H](CCC(=O)O)C(=O)N[C@@H](CCC(=O)O)C(=O)N[C@@H](CCC(=O)O)C(=O)O [SLP3] (Ac-VVVTILLEEE-OH) | > 1000 | 10 | 4.7 |  |  | 25 |  |  |  |  |
| CC(=O)N[C@H](C(=O)N[C@H](C(=O)N[C@H](C(=O)N[C@H](C(=O)N[C@@H](CC(C)C)C(=O)N[C@@H](CC(C)C)C(=O)N[C@@H](CC(C)C)C(=O)N[C@@H](CCC(=O)O)C(=O)N[C@@H](CCC(=O)O)C(=O)N[C@@H](CCC(=O)O)C(=O)O)[C@@H](C)O)C(C)C)C(C)C)C(C)C [SLP4] (Ac-VVVTLLLEEE-OH) |  |  |  |  |  |  | absent | polydisperse zero-dimensional nanostructures | 10–60 nm | no nucleation event has taken place |
